This experiment concerns the target T1, human TLR7 (Homo sapiens, UniProt Q9NYK1).
T1 sequence (Q9NYK1 27-1049): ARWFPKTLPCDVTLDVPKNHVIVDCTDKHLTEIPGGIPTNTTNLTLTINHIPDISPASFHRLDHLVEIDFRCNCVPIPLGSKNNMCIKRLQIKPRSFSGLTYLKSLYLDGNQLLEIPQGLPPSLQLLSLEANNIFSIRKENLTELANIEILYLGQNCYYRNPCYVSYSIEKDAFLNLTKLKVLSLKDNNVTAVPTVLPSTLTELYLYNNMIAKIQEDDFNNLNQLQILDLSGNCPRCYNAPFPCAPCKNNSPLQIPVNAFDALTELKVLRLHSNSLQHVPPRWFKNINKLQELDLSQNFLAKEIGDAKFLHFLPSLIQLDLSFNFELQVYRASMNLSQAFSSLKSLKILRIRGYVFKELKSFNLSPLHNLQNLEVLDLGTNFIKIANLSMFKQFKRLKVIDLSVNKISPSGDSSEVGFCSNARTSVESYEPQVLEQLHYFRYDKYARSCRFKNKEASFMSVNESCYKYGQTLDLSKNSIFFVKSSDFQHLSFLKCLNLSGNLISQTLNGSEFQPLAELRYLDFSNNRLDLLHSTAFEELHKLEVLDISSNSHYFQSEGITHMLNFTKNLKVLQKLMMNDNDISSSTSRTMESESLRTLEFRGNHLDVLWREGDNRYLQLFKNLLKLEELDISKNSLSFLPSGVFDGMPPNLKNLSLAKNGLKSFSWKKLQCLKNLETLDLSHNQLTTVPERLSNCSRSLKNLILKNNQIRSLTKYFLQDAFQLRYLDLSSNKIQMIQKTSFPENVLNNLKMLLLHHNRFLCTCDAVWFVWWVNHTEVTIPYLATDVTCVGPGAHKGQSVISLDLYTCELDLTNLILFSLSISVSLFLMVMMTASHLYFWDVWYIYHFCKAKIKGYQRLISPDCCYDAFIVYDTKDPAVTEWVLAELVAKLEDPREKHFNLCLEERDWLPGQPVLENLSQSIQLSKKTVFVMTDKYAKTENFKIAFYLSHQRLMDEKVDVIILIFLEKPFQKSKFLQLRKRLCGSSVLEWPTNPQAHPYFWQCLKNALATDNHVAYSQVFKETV
The experiment in a line: HEK293-Blue-hTLR-7 cells assay. In kind it is cell-based. The note with it: HEK293-Blue-hTLR7 cells, SEAP reporter, R848 stimulation, 20 hrs. The text has this:
HEK293-Blue-hTLR-7 Cells Assay:
A stable HEK293-Blue-hTLR-7 cell line was purchased from InvivoGen (Cat. #: hkb-htlr7, San Diego, Calif., USA). These cells were originally designed for studying the stimulation of human TLR7 by monitoring the activation of NF-κB. A SEAP (secreted embryonic alkaline phosphatase) reporter gene was placed under the control of the IFN-β minimal promoter fused to five NF-κB and AP-1-binding sites. The SEAP was induced by activating NF-κB and AP-1 via stimulating HEK-Blue hTLR7 cells with TLR7 ligands. Therefore the reporter expression was declined by TLR7 antagonist under the stimulation of a ligand, such as R848 (Resiquimod), for incubation of 20 hrs. The cell culture supernatant SEAP reporter activity was determined using QUANTI-Blue™ kit (Cat. #: rep-qb1, Invivogen, San Diego, Ca, USA) at a wavelength of 640 nm, a detection medium that turns purple or blue in the presence of alkaline phosphatase.
HEK293-Blue-hTLR7 cells were incubated at a density of 250,000˜450,000 cells/mL in a volume of 170 μL in a 96-well plate in Dulbecco's Modified Eagle's medium (DMEM) containing 4.5 g/L glucose, 50 U/mL penicillin, […], […], 2 mM L-glutamine, 10% (v/v) heat-inactivated fetal bovine serum with addition of 20 sL test compound in a serial dilution in the presence of final DMSO at 1% and 10 μL of 20 uM R848 in above DMEM, perform incubation under 37° C. in a CO2 incubator for 20 hrs. Then 20 μL of the supernatant from each well was incubated with 180 sL Quanti-blue substrate solution at 37° C. for 2 hrs and the absorbance was read at 620-655 nm using a spectrophotometer. The signalling pathway that TLR7 activation leads to downstream NF-κB activation has been widely accepted, and therefore similar reporter assay was modified for evaluating TLR7 antagonist.
The term IC50 denotes the concentration at which inhibition is half-maximal. In the case of `N#Cc1ccc(N2CC(C(=O)NC3CCCNCC3)C(C(F)(F)F)C2)c2cccnc12` (single isomer, unassigned) [Example 30A, N-(azepan-4-yl)-1-(8-cyano-5-quinolyl)-4-(trifluoromethyl)pyrrolidine-3-carboxamide], half-maximal inhibition (IC50) required 41 nM.
`CC[C@@H]1CN(c2ccc(C#N)c3ncccc23)C[C@H]1C(=O)NC1CCN(C)CC1` (relative stereo) [Example 29, Trans-1-(8-cyano-5-quinolyl)-4-ethyl-N-(1-methyl-4-piperidyl)pyrrolidine-3-carboxamide]: the IC50 was determined as 40 nM.
`O=C(NC1CC2COCC(C1)N2)C1CN(c2ccc(C(F)(F)F)c3nccnc23)CC12CC2` (stereo not drawn) [Example 6, N-(3-oxa-9-azabicyclo[3.3.1]nonan-7-yl)-5-[8-(trifluoromethyl)quinoxalin-5-yl]-5-azaspiro[2.4]heptane-7-carboxamide]: the IC50 came to 9 nM.
In turn, `O=C(NC1C2CCCC1CNC2)C1CN(c2ccc(C(F)(F)F)c3nccnc23)CC12CC2` (stereo not drawn) [Example 8, N-(3-azabicyclo[3.3.1]nonan-9-yl)-5-[8-(trifluoromethyl)quinoxalin-5-yl]-5-azaspiro[2.4]heptane-7-carboxamide] displayed an IC50 of 10 nM.
Molecule `CC(C)[C@@H]1CN(c2ccc(C#N)c3ncccc23)C[C@H]1C(=O)NC1CCN(C)CC1` (relative stereo) [Example 37, Trans-1-(8-cyano-5-quinolyl)-4-isopropyl-N-(1-methyl-4-piperidyl)pyrrolidine-3-carboxamide] yielded a half-inhibitory concentration (IC50) of 59 nM.
For `CN1CCC(NC(=O)C2CN(c3ccc(C#N)c4ncccc34)CC2C(F)(F)F)CC1` (stereo not drawn) [Example 18, 1-(8-Cyano-5-quinolyl)-N-(1-methyl-4-piperidyl)-4-(trifluoromethyl)pyrrolidine-3-carboxamide], the IC50 is 23 nM.
For `NC1CC2(C1)CC(NC(=O)C1CN(c3ccc(C(F)(F)F)c4nccnc34)CC13CC3)C2` (stereo not drawn) [Example 22, N-(6-aminospiro[3.3]heptan-2-yl)-5-[8-(trifluoromethyl)quinoxalin-5-yl]-5-azaspiro[2.4]heptane-7-carboxamide], the IC50 was 28 nM.
`C[C@H]1CN(c2ccc(C(F)(F)F)c3nccnc23)C[C@@H]1C(=O)NC1CCN(C)CC1` [Example 5, (3R,4R)-4-methyl-N-(1-methyl-4-piperidyl)-1-[8-(trifluoromethyl)quinoxalin-5-yl]pyrrolidine-3-carboxamide] gave an IC50 of 8 nM.
On to `CN1CCCC(CNC(=O)C2CN(c3ccc(C#N)c4ncccc34)CC23CC3)C1` (stereo not drawn) [Example 51, 5-(8-Cyano-5-quinolyl)-N-[(1-methyl-3-piperidyl)methyl]-5-azaspiro[2.4]heptane-7-carboxamide], for which the IC50 turned out to be 201 nM.
`CN1CC(NC(=O)C2CN(c3ccc(C(F)(F)F)c4nccnc34)CC23CC3)C2(CC2)C1` (stereo not drawn) [Example 20, N-(5-methyl-5-azaspiro[2.4]heptan-7-yl)-5-[8-(trifluoromethyl)quinoxalin-5-yl]-5-azaspiro[2.4]heptane-7-carboxamide]: the midpoint of inhibition, the IC50, lay at 25 nM.
Regarding `NC1CC(NC(=O)C2CN(c3ccc(C(F)(F)F)c4nccnc34)CC23CC3)C1` (stereo not drawn) [Example 38, N-(3-Aminocyclobutyl)-5-[8-(trifluoromethyl)quinoxalin-5-yl]-5-azaspiro[2.4]heptane-7-carboxamide], half-maximal inhibition (IC50) was put at 59 nM. Compared with the last molecule, the IC50 is about 2.4-fold higher.
Then `CN1CCC(NC(=O)[C@H]2CN(c3ccc(C#N)c4ncccc34)C[C@@H]2C(F)(F)F)CC1` [Example 4, (3R,4R)-1-(8-cyano-5-quinolyl)-N-(1-methyl-4-piperidyl)-4-(trifluoromethyl)pyrrolidine-3-carboxamide], with 9 nM.
As for `O=C(NC1CC2(CCNCC2)C1)C1CN(c2ccc(C(F)(F)F)c3nccnc23)CC12CC2` (stereo not drawn) [Example 34, N-(7-azaspiro[3.5]nonan-2-yl)-5-[8-(trifluoromethyl)quinoxalin-5-yl]-5-azaspiro[2.4]heptane-7-carboxamide], half-maximal inhibition (IC50) required 46 nM.
Then `C[C@H]1CN(c2ccc([N+](=O)[O-])c3ncccc23)C[C@@H]1C(=O)NC1CCN(C)CC1` [Example 27, (3R,4R)-4-Methyl-N-(1-methyl-4-piperidyl)-1-(8-nitro-5-quinolyl)pyrrolidine-3-carboxamide], with 38 nM; and `N[C@@H]1CCC[C@H](NC(=O)C2CN(c3ccc(C(F)(F)F)c4nccnc34)CC23CC3)C1` (relative stereo) [Example 43, Cis-N-(3-aminocyclohexyl)-5-[8-(trifluoromethyl)quinoxalin-5-yl]-5-azaspiro[2.4]heptane-7-carboxamide], with 81 nM.
As for `C[C@@H]1CN(c2ccc(C#N)c3ncccc23)C[C@H]1C(=O)NC1CCCNCC1` (single isomer, unassigned) [Example 52A, Trans-N-(azepan-4-yl)-1-(8-cyano-5-quinolyl)-4-methyl-pyrrolidine-3-carboxamide], the figure is 203 nM.
As for `CN1CCC(NC(=O)[C@@H]2CN(c3ccc(C#N)c4ncccc34)C[C@H]2C2CC2)CC1` (relative stereo) [Example 14, Trans-1-(8-cyano-5-quinolyl)-4-cyclopropyl-N-(1-methyl-4-piperidyl)pyrrolidine-3-carboxamide], the figure is 20 nM.
`C[C@@H]1CN(c2ccc(C#N)c3ncccc23)C[C@H]1C(=O)N1CCC2(CCNCC2)CC1` (relative stereo) [Example 32, Trans-5-[3-(3,9-diazaspiro[5.5]undecane-3-carbonyl)-4-methyl-pyrrolidin-1-yl]quinoline-8-carbonitrile] showed an IC50 of 44 nM.
The molecule `N[C@@H]1C[C@H](NC(=O)C2CN(c3ccc(C(F)(F)F)c4nccnc34)CC23CC3)[C@@H]2C[C@@H]21` (stereo partly drawn) [Example 36, N-[(1R,2S,4R,5S)-4-amino-2-bicyclo[3.1.0]hexanyl]-5-[8-(trifluoromethyl)quinoxalin-5-yl]-5-azaspiro[2.4]heptane-7-carboxamide] came in with an IC50 of 57 nM.
Molecule `C[C@H]1CN(c2ccc(Cl)c3ncccc23)C[C@@H]1C(=O)NC1CCN(C)CC1` [Example 50, (3R,4R)-1-(8-chloro-5-quinolyl)-4-methyl-N-(1-methyl-4-piperidyl)pyrrolidine-3-carboxamide] came in with an IC50 of 178 nM. Against the preceding molecule, the IC50 is about 3.1-fold higher.
Molecule `CN1CCC(NC(=O)[C@@H]2CN(c3ccc(Cl)c4ncccc34)C[C@H]2C(F)(F)F)CC1` (relative stereo) [Example 46, Trans-1-(8-chloro-5-quinolyl)-N-(1-methyl-4-piperidyl)-4-(trifluoromethyl)pyrrolidine-3-carboxamide] registered an IC50 of 108 nM.
As for `C[C@H]1CN(c2ccc(C#N)c3nccnc23)C[C@@H]1C(=O)NC1CCN(C)CC1` [Example 3, (3R,4R)-1-(8-cyanoquinoxalin-5-yl)-4-methyl-N-(1-methyl-4-piperidyl)pyrrolidine-3-carboxamide], the figure is 4 nM; as for `C[C@H]1CN(c2ccc(C#N)c3nccnc23)C[C@@H]1C(=O)NC1CCN(C2CCNCC2)CC1` [Example 60, (3R,4R)-1-(8-cyanoquinoxalin-5-yl)-4-methyl-N-[1-(4-piperidyl)-4-piperidyl]pyrrolidine-3-carboxamide], 492 nM.
Molecule `N#Cc1ccc(N2CC(C(=O)NC[C@@H]3CNCCO3)C3(CC3)C2)c2nccnc12` (single isomer, unassigned) [Example 71B] displayed an IC50 of 202 nM.

The values above are taken from US20210323977A1, “PYRROLIDINYL AMIDE COMPOUNDS FOR THE TREATMENT OF AUTOIMMUNE DISEASE” (Hoffmann-La Roche Inc., priority 2018, published 2021).
